Where no end group is shown, it is not given here.
These substances were tested on nectin 4 protein on NIH:OVCAR-5 cells (assay: Effect of peptides on anti-Nectin-4 antibody binding to cells as determined by flow cytometry). Settings: Run One; 150 μg/mL peptide, 30 minutes; Control 1 = 15,015.
Format: cell-based, human
Procedure: Confluent monolayers of cells were detached from 75 cm^2 tissue culture flasks using Accutase cell dissociation buffer (Innovative Cell Technologies, San Diego, Calif.), washed, and labeled with mouse IgG or mAbs against Nectin-4 or Nectin-1 (2.5 μg/10^6 cells) in Flow Buffer [phosphate buffered saline (PBS) containing 2.5% newborn calf serum and 0.02% sodium azide] for 30 min at 4° C.. Cells were washed and incubated with goat anti-mouse IgG F(ab′)2 (Jackson ImmunoResearch, West Grove, Pa.), then washed again and incubated with streptavidin-allophycocyanin conjugate (Jackson ImmunoResearch, West Grove, Pa.) for 30 min each. Cells were washed and fixed in Flow Buffer containing 1% formaldehyde and analyzed in the University of Minnesota Flow Cytometry Resource with a BD Accuri™ C6 flow cytometer (BD Biosciences, San Jose, Calif.) using the Accuri™ software.
Briefly, NIH:OVCAR-5 cells that natively express a moderate amount of nectin 4 protein were incubated for 30 minutes in 150 μg/mL of soluble peptide in DMSO. After incubation, the cells were washed, and then triple antibody stained using mouse anti-nectin 4 (or IgG control) primary antibody, biotinylated goat anti-mouse secondary antibody, and streptavidin APC tertiary antibody. Finally, utilizing the University of Minnesota flow core's Accuri C6 flow cytometer, the relative antibody binding affinity for control and peptide-treated samples was quantitated and compared. Data was collected for each of the 57 peptides generated.

Which “N4 MFI” value does the source give for “PAGELETSDVVTVV-NH2 (listed as Homo sapiens) [Peptide 1]” here?
Its value is 2,085.

Same assay, conditions: Run One; 150 μg/mL peptide, 30 minutes; IgG control primary antibody; Control 1 = 1,670

With “PAGELETSDVVTVV-NH2 (listed as Homo sapiens) [Peptide 1]” as the substance, how does the “IgG MFI” value read?
Its value is 1,529.

Same assay, conditions: Run One; Control 1 = 8.99

How did the “N4 MFI/IgG MFI” value turn out when “PAGELETSDVVTVV-NH2 (listed as Homo sapiens) [Peptide 1]” was run?
Its value is 1.36.

Same assay, conditions: Run One; antibody binding relative to Control 1 = 100.00

“PAGELETSDVVTVV-NH2 (listed as Homo sapiens) [Peptide 1]” was tested. Which “nectin-4 antibody binding, percent of control” value did it give?
Its value is 4.17.

Same assay, conditions: Run Three; 150 μg/mL peptide, 30 minutes; Control 3 = 13,070.20

How did the “N4 MFI” value turn out when “ESQLNLTVMAKPTN-NH2 (listed as Homo sapiens) [Peptide 39]” was run?
Its value is 8,719.33.

Which “N4 MFI” value does the source give for “GFIGTDVVLHCSFA-NH2 (listed as Homo sapiens) [Peptide 31]” here?
The value was 15,498.21.

How did the “N4 MFI” value turn out when “LSRLELEDEGVYIC-NH2 (listed as Homo sapiens) [Peptide 37]” was run?
The value was 46,393.69.

Which “N4 MFI” value does the source give for “NVAIYNPSMGVSVL-NH2 (listed as Homo sapiens) [Peptide 34]” here?
Its value is 14,542.93.

How did the “N4 MFI” value turn out when “TNWIEGTQAVLRAKKGQ-NH2 (listed as Homo sapiens) [Peptide 40]” was run?
Its value is 10,121.20.

“TWQKSTNGSKQNV-NH2 (listed as Homo sapiens) [Peptide 33]” was tested. Which “N4 MFI” value did it give?
The value was 10,425.01.

For “VLAPYRERVEFLRP-NH2 (listed as Homo sapiens) [Peptide 35]”, which “N4 MFI” value is on record?
Its value is 15,767.33.

Same assay, conditions: Run Three; Control 3 = 9.83

“ESQLNLTVMAKPTN-NH2 (listed as Homo sapiens) [Peptide 39]” was tested. Which “N4 MFI/IgG MFI” value did it give?
Its value is 4.24.

With “GFIGTDVVLHCSFA-NH2 (listed as Homo sapiens) [Peptide 31]” as the substance, how does the “N4 MFI/IgG MFI” value read?
Its value is 8.83.

Which “N4 MFI/IgG MFI” value does the source give for “LSRLELEDEGVYIC-NH2 (listed as Homo sapiens) [Peptide 37]” here?
Its value is 11.38.

How did the “N4 MFI/IgG MFI” value turn out when “NVAIYNPSMGVSVL-NH2 (listed as Homo sapiens) [Peptide 34]” was run?
The value was 9.77.

Which “N4 MFI/IgG MFI” value does the source give for “TNWIEGTQAVLRAKKGQ-NH2 (listed as Homo sapiens) [Peptide 40]” here?
Its value is 7.11.

With “TWQKSTNGSKQNV-NH2 (listed as Homo sapiens) [Peptide 33]” as the substance, how does the “N4 MFI/IgG MFI” value read?
The value was 8.31.

How did the “N4 MFI/IgG MFI” value turn out when “VLAPYRERVEFLRP-NH2 (listed as Homo sapiens) [Peptide 35]” was run?
Its value is 8.59.

Same assay, conditions: Run Three; IgG control primary antibody; Control 3 = 1330

Which “IgG MFI” value does the source give for “ESQLNLTVMAKPTN-NH2 (listed as Homo sapiens) [Peptide 39]” here?
The value was 2056.

How did the “IgG MFI” value turn out when “GFIGTDVVLHCSFA-NH2 (listed as Homo sapiens) [Peptide 31]” was run?
Its value is 1756.

Which “IgG MFI” value does the source give for “LSRLELEDEGVYIC-NH2 (listed as Homo sapiens) [Peptide 37]” here?
The value was 4078.

With “NVAIYNPSMGVSVL-NH2 (listed as Homo sapiens) [Peptide 34]” as the substance, how does the “IgG MFI” value read?
The value was 1489.

“TNWIEGTQAVLRAKKGQ-NH2 (listed as Homo sapiens) [Peptide 40]” was tested. Which “IgG MFI” value did it give?
The value was 1423.

How did the “IgG MFI” value turn out when “TWQKSTNGSKQNV-NH2 (listed as Homo sapiens) [Peptide 33]” was run?
The value was 1255.

“VLAPYRERVEFLRP-NH2 (listed as Homo sapiens) [Peptide 35]” was tested. Which “IgG MFI” value did it give?
The value was 1835.

Same assay, conditions: Run Three; antibody binding relative to Control 3 = 100.00

“ESQLNLTVMAKPTN-NH2 (listed as Homo sapiens) [Peptide 39]” was tested. Which “nectin-4 antibody binding, percent of control” value did it give?
Its value is 56.76.

Which “nectin-4 antibody binding, percent of control” value does the source give for “GFIGTDVVLHCSFA-NH2 (listed as Homo sapiens) [Peptide 31]” here?
The value was 117.05.

How did the “nectin-4 antibody binding, percent of control” value turn out when “LSRLELEDEGVYIC-NH2 (listed as Homo sapiens) [Peptide 37]” was run?
The value was 360.43.

For “NVAIYNPSMGVSVL-NH2 (listed as Homo sapiens) [Peptide 34]”, which “nectin-4 antibody binding, percent of control” value is on record?
Its value is 111.19.

Which “nectin-4 antibody binding, percent of control” value does the source give for “TNWIEGTQAVLRAKKGQ-NH2 (listed as Homo sapiens) [Peptide 40]” here?
The value was 74.09.

With “TWQKSTNGSKQNV-NH2 (listed as Homo sapiens) [Peptide 33]” as the substance, how does the “nectin-4 antibody binding, percent of control” value read?
Its value is 78.11.

With “VLAPYRERVEFLRP-NH2 (listed as Homo sapiens) [Peptide 35]” as the substance, how does the “nectin-4 antibody binding, percent of control” value read?
The value was 118.67.

Same assay, conditions: Run Two; 150 μg/mL peptide, 30 minutes; Control 2 = 49,491

Which “N4 MFI” value does the source give for “CLSEGQPPPSYNWT-NH2 (listed as Homo sapiens) [Peptide 21]” here?
The value was 34,351.

Same assay, conditions: Run Two; Control 2 = 9.46

With “CLSEGQPPPSYNWT-NH2 (listed as Homo sapiens) [Peptide 21]” as the substance, how does the “N4 MFI/IgG MFI” value read?
Its value is 8.61.

Same assay, conditions: Run Two; IgG control primary antibody; Control 2 = 5,233

“CLSEGQPPPSYNWT-NH2 (listed as Homo sapiens) [Peptide 21]” was tested. Which “IgG MFI” value did it give?
Its value is 3,989.

Same assay, conditions: Run Two; antibody binding relative to Control 2 = 100.00

With “CLSEGQPPPSYNWT-NH2 (listed as Homo sapiens) [Peptide 21]” as the substance, how does the “nectin-4 antibody binding, percent of control” value read?
The value was 68.60.

Same assay, conditions: flow cytometry; 150 μg/mL peptide

“ESQLNLTVMAKPTN-NH2 (listed as Homo sapiens) [Peptide 39]” was tested. Which “nectin-4 antibody binding compared to untreated control cells (in words)” value did it give?
Its value is “reduction in nectin-4 antibody binding”.

How did the “nectin-4 antibody binding compared to untreated control cells (in words)” value turn out when “GFIGTDVVLHCSFA-NH2 (listed as Homo sapiens) [Peptide 31]” was run?
Its value is “increased nectin-4 antibody binding”.

With “NVAIYNPSMGVSVL-NH2 (listed as Homo sapiens) [Peptide 34]” as the substance, how does the “nectin-4 antibody binding compared to untreated control cells (in words)” value read?
Its value is “increased nectin-4 antibody binding”.

How did the “nectin-4 antibody binding compared to untreated control cells (in words)” value turn out when “PAGELETSDVVTVV-NH2 (listed as Homo sapiens) [Peptide 1]” was run?
Its value is “reduction in nectin-4 antibody binding”.

For “VLAPYRERVEFLRP-NH2 (listed as Homo sapiens) [Peptide 35]”, which “nectin-4 antibody binding compared to untreated control cells (in words)” value is on record?
Its value is “increased nectin-4 antibody binding”.

Same assay, conditions: summary table; Nectin-4 antibody binding relative to control = 100

For “ESQLNLTVMAKPTN-NH2 (listed as Homo sapiens) [Peptide 39]”, which Flow binding is on record?
The Flow binding was 57%.

How did the Flow binding turn out when “GFIGTDVVLHCSFA-NH2 (listed as Homo sapiens) [Peptide 31]” was run?
Its Flow binding is 117%.

With “NVAIYNPSMGVSVL-NH2 (listed as Homo sapiens) [Peptide 34]” as the substance, how does the Flow binding read?
The Flow binding was 112%.

How did the Flow binding turn out when “VLAPYRERVEFLRP-NH2 (listed as Homo sapiens) [Peptide 35]” was run?
Its Flow binding is 119%.

The substances below were run on ovarian cancer cell aggregation and spheroid formation (assay: Spheroid assay for peptides (visual scale +1 to +5)). Settings: 24 hrs; visual scale of +1 to +5; Control = 2.
Format: cell-based, human
Procedure: Spheroids were formed from the NIH:OVCAR5 cell lines described above using the liquid overlay method. One milliliter of a single cell suspension was seeded at a concentration of 50,000 cells/ml in OptiMEM® media, into 24-well tissue culture plates coated with 0.5% Seakem agarose (in complete RPMI-1640). Plates were incubated at 37° C. in a humidified incubator with 5% CO2. At various time points up to 5 days, the plates were removed from the incubator and the spheroids were photographed with a Nikon CoolPix digital camera mounted on an Olympus CK2 inverted microscope with a 4× objective. The size of the spheroids was determined using the measure tool in Adobe Photoshop. The largest spheroids were quantified (20-90 spheroids/well), in a minimum of 8 wells, for a total of >300 spheroids per cell type.
The clinical relevance is that by blocking the formation of spheroids, the cells will be more sensitive to chemotherapy (which targets the single cells that proliferate more rapidly than spheroids).
The spheroid assay for peptides 1-30 were scored using a visual scale of +1 to +5. The controls were scored at +2 (24 hrs) and +4 (48 hrs). […] It may be harder to visually assess the size at 24 hours, since the spheroids are relatively small, but and perhaps some of the peptides are affecting cell division, and that is why the spheroids are smaller than the controls at 48 hours, but not 24 hrs (this can be easily assayed with an MTT assay).

How did the Spheroid-24 turn out when “CLSEGQPPPSYNWT-NH2 (listed as Homo sapiens) [Peptide 21]” was run?
Its Spheroid-24 is 1.

How did the Spheroid-24 turn out when “QRITHILHVSFLAE-NH2 (listed as Homo sapiens) [Peptide 18]” was run?
The Spheroid-24 was 3.

Same assay, conditions: 48 hrs; visual scale of +1 to +5; Control = 4

With “CLSEGQPPPSYNWT-NH2 (listed as Homo sapiens) [Peptide 21]” as the substance, how does the Spheroid-48 read?
Its Spheroid-48 is 2.

Which Spheroid-48 does the source give for “QRITHILHVSFLAE-NH2 (listed as Homo sapiens) [Peptide 18]” here?
Its Spheroid-48 is 5.

Source: patent US10907212B2, “Inhibitors of cell adhesion” (Regents of the University of Minnesota, priority 2016, dated 2021)
